Literature values, collected in PMC12691659 (Antimicrobial Agents and Chemotherapy, 2025).

How the values were obtained:
[1] = in vivo, cited from earlier work
Source text: Its retrospective, uncontrolled design limits the ability to establish causal relationships. The adherence to co-prescribing treatments could not be verified. […] Overexposure definition was based on Cmin rather than AUC, because the latter is still not widely available in routine TDM.

[2] = in vivo; cited from earlier work
[3] = human, in vivo; cited from earlier work
[4] = human, in vivo; cited from earlier work; remark: listed apart in the source
[5] = system: P-glycoprotein (P-gp); conditions: cited from earlier work

SMILES: CCCCCCCCCC(=O)N[C@@H](Cc1c[nH]c2ccccc12)C(=O)N[C@H](CC(N)=O)C(=O)N[C@@H](CC(=O)O)C(=O)N[C@@H]1C(=O)NCC(=O)N[C@@H](CCCN)C(=O)N[C@@H](CC(=O)O)C(=O)N[C@H](C)C(=O)N[C@@H](CC(=O)O)C(=O)NCC(=O)N[C@H](CO)C(=O)N[C@@H]([C@H](C)CC(=O)O)C(=O)N[C@@H](CC(=O)c2ccccc2N)C(=O)O[C@@H]1C [daptomycin]
- Cmin associated with an increased risk of CPK elevation ([1]; 6 mg/kg): > 24300 ng/mL
- AUC associated with increased risk of adverse events [1]: > 939 µg·h/mL
- Cmin associated with increased risk of adverse events [1]: > 24000 ng/mL
- Dose excreted unchanged by the kidneys [2]: 78%
- CLDAP, population final estimate [3]: 0.365 L/h
- Q, population final estimate [3]: 0.752 L/h
- V1, population final estimate [3]: 3.59 L
- V2, population final estimate [3]: 4.71 L
- γCL [3]: 0.193
- γV1 [3]: 0.24
- θ1 (CL, CLCR) [3]: 0.43
- θ2 (CL, Sex) [3]: 0.232
- θ3 (V1, Age) [3]: 0.263
- θ4 (V1, WT) [3]: 0.603
- θ6 (V1, Sex) [3]: 0.117
- ωCL [3]: 0.196
- ωQ [3]: 1.13
- ωV1 [3]: 0.123
- ωV2 [3]: 0.29
- Increase of AUC in morbidly obese subjects [4]: 60%
- Increase of Cmax in morbidly obese subjects [4]: 60%

SMILES: CCCCC1=NC2(CCCC2)C(=O)N1Cc1ccc(-c2ccccc2-c2nnn[nH]2)cc1 [irbesartan]
- Dose eliminated unchanged in the urine [2]: Up to 20%
- Inhibition of the transport of digoxin, a known P-gp substrate [5]: inhibit the transport of digoxin
- P-glycoprotein substrate status ([5]; renal efflux transporter): substrate of P-glycoprotein

SMILES: CCCc1nc2c(C)cc(-c3nc4ccccc4n3C)cc2n1Cc1ccc(-c2ccccc2C(=O)O)cc1 [telmisartan]
- Inhibition of the transport of digoxin, a known P-gp substrate [5]: inhibit the transport of digoxin
